Assay results reported in US20260297080A1, “BICYCLIC COMPOUNDS AS CDK INHIBITORS” (BeOne Medicines I GmbH, priority 2022, published 2026).
pIC50: −log10 of the molar value.

What was measured:
CDK2/Cyclin E1 = CDK2/Cyclin E1 (Homo sapiens, UniProt P24941); test: CDK2/Cyclin E1 Biochemical Assay (TR-FRET), 1 mM ATP; conditions: 0.15 μM Rb (Ser780)-biotin substrate, pH7.0, 60 min preincubation, 90 min reaction, room temperature
Description: (§1) CDK2/Cyclin E1 and CDK1/Cyclin B1 Biochemical Assays
(§2) Compounds disclosed herein were tested for inhibition of CDK2/Cyclin E1 or CDK1/Cyclin B1 kinase in an assay based on the time-resolved fluorescence-resonance energy transfer (TR-FRET) methodology. The assay was carried out in 384-well low volume black plates in a reaction mixture containing CDK2/Cyclin E1 or CDK1/Cyclin B1, 1 mM ATP for CDK2/Cyclin E1 and CDK1/Cyclin B1, 0.15 μM Rb (Ser780)-biotin substrate and 0-10 μM compound in buffer containing 50 mM HEPES pH7.0, 0.02% NaN3, 0.01% BSA, 0.1 mM Orthovanadate, 50 mM MgCl2, 1 mM DTT and 0.005% Tween-20. The kinase was incubated with compound for 60 minutes at room temperature and the reaction was initiated by the addition of ATP and Rb (Ser780)-biotin substrate. After reaction at room temperature for 90 minutes, an equal volume of stop/detection solution was added according to the manufacture's instruction (Cisbio Bioassays). The stop/detection solution contained Streptavidin-XL665 and Anti-pRb (Ser780) mAb-Eu Cryptate in Detection buffer (Cisbio Bioassays). Plates were incubated at room temperature for 60 minutes, and the TR-FRET signals (ex337 nm, em665 nm/620 nm) were recorded on a PHERAstar FSX plate reader (BMG Labtech). The inhibition percentage of CDK2/Cyclin E1 or CDK1/Cyclin B1 kinase activity in presence of increasing concentrations of compounds was calculated based on the ratio of fluorescence at 665 nm to that at 620 nm. The IC50 for each compound was derived from fitting the data to the four-parameter logistic equation by Dotmatics.

CDK1/Cyclin B1 = CDK1/Cyclin B1 (Homo sapiens, UniProt P06493); test: CDK1/Cyclin B1 Biochemical Assay (TR-FRET), 1 mM ATP; conditions: 0.15 μM Rb (Ser780)-biotin substrate, pH7.0, 60 min preincubation, 90 min reaction, room temperature
CDK1/Cyclin B1, sequence (P06493 whole entry): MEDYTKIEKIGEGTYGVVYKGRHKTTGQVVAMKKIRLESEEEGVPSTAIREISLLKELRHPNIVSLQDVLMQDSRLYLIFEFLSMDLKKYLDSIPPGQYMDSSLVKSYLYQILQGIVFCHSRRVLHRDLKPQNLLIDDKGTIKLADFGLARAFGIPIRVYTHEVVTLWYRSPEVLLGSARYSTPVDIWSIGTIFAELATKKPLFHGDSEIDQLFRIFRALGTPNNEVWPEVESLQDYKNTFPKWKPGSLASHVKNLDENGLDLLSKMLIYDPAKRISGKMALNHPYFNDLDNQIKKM
CDK1/Cyclin B1, sequence (P14635 whole entry partner): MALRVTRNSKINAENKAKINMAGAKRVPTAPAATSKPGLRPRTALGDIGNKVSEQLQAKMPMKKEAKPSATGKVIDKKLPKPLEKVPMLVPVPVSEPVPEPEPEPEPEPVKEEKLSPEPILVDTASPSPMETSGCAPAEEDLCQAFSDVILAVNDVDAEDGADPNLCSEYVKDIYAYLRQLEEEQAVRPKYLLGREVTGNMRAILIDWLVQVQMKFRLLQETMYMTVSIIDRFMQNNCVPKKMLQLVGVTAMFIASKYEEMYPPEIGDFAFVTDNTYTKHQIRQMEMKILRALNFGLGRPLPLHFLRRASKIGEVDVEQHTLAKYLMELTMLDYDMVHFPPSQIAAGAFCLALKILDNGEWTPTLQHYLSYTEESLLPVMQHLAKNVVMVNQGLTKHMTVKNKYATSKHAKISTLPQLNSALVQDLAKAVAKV
Description: as §1, §2

Row | pIC50 (CDK2/Cyclin E1) | pIC50 (CDK1/Cyclin B1) | Compound
1 | 8.57 | 6.67 | CC1(NC(=O)O[C@H]2CC[C@@H](c3cc(Nc4ccc5c(c4F)CS(=O)(=O)N5)n[nH]3)C2)CCCC1 (relative stereo) [Example 439, cis-3-(3-((4-fluoro-2,2-dioxido-1,3-dihydrobenzo[c]isothiazol-5-yl)amino)-1H-pyrazol-5-yl)cyclopentyl(1-methylcyclopentyl)carbamate]
2 | 8.00 | 5.15 | CC1(NC(=O)O[C@H]2CC[C@@H](c3cc(Nc4cc5c(cc4F)S(=O)(=O)NC5)n[nH]3)C2)COC1 (relative stereo) [Example 451, cis-3-(3-((6-fluoro-1,1-dioxido-2,3-dihydrobenzo[d]isothiazol-5-yl)amino)-1H-pyrazol-5-yl)cyclopentyl(3-methyloxetan-3-yl)carbamate]
3 | 7.64 | 5.88 | CCC(=O)CNC(=O)O[C@H]1CC[C@@H](c2cc(Nc3ccc4c(c3F)CS(=O)(=O)N4)n[nH]2)C1 (relative stereo) [Example 432, cis-3-(3-((4-fluoro-2,2-dioxido-1,3-dihydrobenzo[c]isothiazol-5-yl)amino)-1H-pyrazol-5-yl)cyclopentyl(2-oxobutyl)carbamate]
4 | 6.28 | < 5.00 | CC(C)NC(=O)O[C@H]1CC[C@@H](c2cc(Nc3ccc4c(c3F)NS(=O)(=O)N4C)n[nH]2)C1 (relative stereo) [Example 467, cis-3-(3-((4-fluoro-1-methyl-2,2-dioxido-1,3-dihydrobenzo[c][1,2,5]thiadiazol-5-yl)amino)-1H-pyrazol-5-yl)cyclopentyl isopropylcarbamate]
5 | 9.30 | 6.94 | [2H]C([2H])([2H])N1c2ccc(Nc3cc([C@@H]4CC[C@H](OC(=O)NC(C)(C)C)C4)[nH]n3)cc2CS1(=O)=O (relative stereo) [Example 454, cis-3-(3-((1-(methyl-d3)-2,2-dioxido-1,3-dihydrobenzo[c]isothiazol-5-yl)amino)-1H-pyrazol-5-yl)cyclopentyl tert-butylcarbamate]
6 | 8.33 | 6.23 | O=C(NCCC(F)(F)F)O[C@H]1CC[C@@H](c2cc(Nc3ccc4c(c3F)CS(=O)(=O)N4)n[nH]2)C1 (relative stereo) [Example 438, cis-3-(3-((4-fluoro-2,2-dioxido-1,3-dihydrobenzo[c]isothiazol-5-yl)amino)-1H-pyrazol-5-yl)cyclopentyl(3,3,3-trifluoropropyl)carbamate]
7 | 7.38 | < 5.00 | O=C(NC1CCOC1)O[C@H]1CC[C@@H](c2cc(Nc3ccc4c(c3F)CS(=O)(=O)N4)n[nH]2)C1 (relative stereo) [Example 431, cis-3-(3-((4-fluoro-2,2-dioxido-1,3-dihydrobenzo[c]isothiazol-5-yl)amino)-1H-pyrazol-5-yl)cyclopentyl(tetrahydrofuran-3-yl)carbamate]
8 | 6.88 | < 5.00 | O=C(NC1CCOC1)O[C@H]1CC[C@@H](c2cc(Nc3ccc4c(c3F)CS(=O)(=O)N4C3CC3)n[nH]2)C1 (relative stereo) [Example 429, cis-3-(3-((1-cyclopropyl-4-fluoro-2,2-dioxido-1,3-dihydrobenzo[c]isothiazol-5-yl)amino)-1H-pyrazol-5-yl)cyclopentyl(tetrahydrofuran-3-yl)carbamate]
9 | 9.30 | 6.26 | O=C(NC12CC(O)(C1)C2)O[C@H]1CC[C@@H](c2cc(Nc3cc4c(cc3F)S(=O)(=O)NC4)n[nH]2)C1 (relative stereo) [Example 456, cis-3-(3-((6-fluoro-1,1-dioxido-2,3-dihydrobenzo[d]isothiazol-5-yl)amino)-1H-pyrazol-5-yl)cyclopentyl(3-hydroxybicyclo[1.1.1]pentan-1-yl)carbamate]
10 | 8.12 | 5.21 | CC1(NC(=O)O[C@H]2CC[C@@H](c3cc(Nc4cc5c(cc4F)S(=O)(=O)NC5)n[nH]3)C2)CCOC1 (relative stereo) [Example 450, cis-3-(3-((6-fluoro-1,1-dioxido-2,3-dihydrobenzo[d]isothiazol-5-yl)amino)-1H-pyrazol-5-yl)cyclopentyl(3-methyltetrahydrofuran-3-yl)carbamate]
11 | 7.74 | 5.31 | CC(C)NC(=O)O[C@H]1CC[C@@H](c2cc(Nc3ccc4c(c3F)NS(=O)(=O)N4)n[nH]2)C1 (relative stereo) [Example 465, cis-3-(3-((4-fluoro-2,2-dioxido-1,3-dihydrobenzo[c][1,2,5]thiadiazol-5-yl)amino)-1H-pyrazol-5-yl)cyclopentyl isopropylcarbamate]
12 | 8.77 | 6.13 | CC[C@H](C)NC(=O)O[C@H]1CC[C@@H](c2cc(Nc3ccc4c(c3F)CS(=O)(=O)N4CC(C)(C)O)n[nH]2)C1 (relative stereo) [Example 434, cis-3-(3-((4-fluoro-1-(2-hydroxy-2-methylpropyl)-2,2-dioxido-1,3-dihydrobenzo[c]isothiazol-5-yl)amino)-1H-pyrazol-5-yl)cyclopentyl((S)-sec-butyl)carbamate]
13 | 8.82 | 6.91 | CC1(C)CCCN1C(=O)O[C@H]1CC[C@@H](c2cc(Nc3ccc4c(c3F)CS(=O)(=O)N4)n[nH]2)C1 (relative stereo) [Example 436, cis-3-(3-((4-fluoro-2,2-dioxido-1,3-dihydrobenzo[c]isothiazol-5-yl)amino)-1H-pyrazol-5-yl)cyclopentyl 2,2-dimethylpyrrolidine-1-carboxylate]
14 | 8.32 | 5.89 | CC1(C)CCCN1C(=O)O[C@H]1CC[C@@H](c2cc(Nc3cc4c(cc3F)S(=O)(=O)NC4)n[nH]2)C1 (relative stereo) [Example 447, cis-3-(3-((6-fluoro-1,1-dioxido-2,3-dihydrobenzo[d]isothiazol-5-yl)amino)-1H-pyrazol-5-yl)cyclopentyl 2,2-dimethylpyrrolidine-1-carboxylate]
15 | 8.51 | 6.23 | CCCNC(=O)O[C@H]1CC[C@@H](c2cc(Nc3ccc4c(c3F)CCS(=O)(=O)N4)n[nH]2)C1 (relative stereo) [Example 460, cis-3-(3-((5-fluoro-2,2-dioxido-3,4-dihydro-1H-benzo[c][1,2]thiazin-6-yl)amino)-1H-pyrazol-5-yl)cyclopentyl propylcarbamate]
16 | 7.80 | 5.10 | CC(C)(CO)NC(=O)O[C@H]1CC[C@@H](c2cc(Nc3cc4c(cc3F)S(=O)(=O)NC4)n[nH]2)C1 (relative stereo) [Example 444, cis-3-(3-((6-fluoro-1,1-dioxido-2,3-dihydrobenzo[d]isothiazol-5-yl)amino)-1H-pyrazol-5-yl)cyclopentyl(1-hydroxy-2-methylpropan-2-yl)carbamate]
17 | 9.05 | 7.01 | [2H]C([2H])([2H])N1c2ccc(Nc3cc([C@@H]4CC[C@H](OC(=O)NC56CC(C5)C6)C4)[nH]n3)cc2CS1(=O)=O (relative stereo) [Example 455, cis-3-(3-((1-(methyl-d3)-2,2-dioxido-1,3-dihydrobenzo[c]isothiazol-5-yl)amino)-1H-pyrazol-5-yl)cyclopentyl bicyclo[1.1.1]pentan-1-ylcarbamate]
18 | 9.00 | 6.01 | O=C(NC12CC(C1)C2)O[C@H]1CC[C@@H](c2cc(Nc3cc4c(cc3F)S(=O)(=O)NC4)n[nH]2)C1 (single isomer, unassigned) [Example 422b, cis-3-(3-((6-fluoro-1,1-dioxido-2,3-dihydrobenzo[d]isothiazol-5-yl)amino)-1H-pyrazol-5-yl)cyclopentyl bicyclo[1.1.1]pentan-1-ylcarbamate]
19 | 9.10 | 6.49 | CC(C)(C)NC(=O)O[C@@H]1CC[C@H](c2cc(Nc3ccc4c(c3F)CCS(=O)(=O)N4)n[nH]2)C1 [Example 464, (1R,3S)-3-(3-((5-fluoro-2,2-dioxido-3,4-dihydro-1H-benzo[c][1,2]thiazin-6-yl)amino)-1H-pyrazol-5-yl)cyclopentyl tert-butylcarbamate]
20 | 8.74 | 5.95 | O=C(NC12CCC(O)(CC1)CC2)O[C@H]1CC[C@@H](c2cc(Nc3cc4c(cc3F)S(=O)(=O)NC4)n[nH]2)C1 (relative stereo) [Example 457, cis-3-(3-((6-fluoro-1,1-dioxido-2,3-dihydrobenzo[d]isothiazol-5-yl)amino)-1H-pyrazol-5-yl)cyclopentyl(4-hydroxybicyclo[2.2.2]octan-1-yl)carbamate]
21 | 7.08 | < 5.00 | CN1c2ccc(Nc3cc([C@@H]4CC[C@H](OC(=O)NC5CCOC5)C4)[nH]n3)cc2CS1(=O)=O (relative stereo) [Example 424, cis-3-(3-((1-methyl-2,2-dioxido-1,3-dihydrobenzo[c]isothiazol-5-yl)amino)-1H-pyrazol-5-yl)cyclopentyl(tetrahydrofuran-3-yl)carbamate]
